Results on six compounds are retold here after patent publication US20020086861A1, “Fused 1,2,4- thiadiazine derivatives, their preparation and use” (priority 1998, published 2002).

Series [1] addresses T1, KATP-channels on pancreatic beta-cells (Homo sapiens, UniProt Q09428).
T1 construct: host or cells: pancreatic beta-cells
Conditions: by an activation of KATP-channels on pancreatic beta-cells; cited from earlier work.

A further series deals with obese Zucker rats. Conditions: cited from earlier work.
The subject of the next series is BB-rats. Conditions: cited from earlier work.

Structures are written as SMILES.

T1 sequence (Q09428 whole entry): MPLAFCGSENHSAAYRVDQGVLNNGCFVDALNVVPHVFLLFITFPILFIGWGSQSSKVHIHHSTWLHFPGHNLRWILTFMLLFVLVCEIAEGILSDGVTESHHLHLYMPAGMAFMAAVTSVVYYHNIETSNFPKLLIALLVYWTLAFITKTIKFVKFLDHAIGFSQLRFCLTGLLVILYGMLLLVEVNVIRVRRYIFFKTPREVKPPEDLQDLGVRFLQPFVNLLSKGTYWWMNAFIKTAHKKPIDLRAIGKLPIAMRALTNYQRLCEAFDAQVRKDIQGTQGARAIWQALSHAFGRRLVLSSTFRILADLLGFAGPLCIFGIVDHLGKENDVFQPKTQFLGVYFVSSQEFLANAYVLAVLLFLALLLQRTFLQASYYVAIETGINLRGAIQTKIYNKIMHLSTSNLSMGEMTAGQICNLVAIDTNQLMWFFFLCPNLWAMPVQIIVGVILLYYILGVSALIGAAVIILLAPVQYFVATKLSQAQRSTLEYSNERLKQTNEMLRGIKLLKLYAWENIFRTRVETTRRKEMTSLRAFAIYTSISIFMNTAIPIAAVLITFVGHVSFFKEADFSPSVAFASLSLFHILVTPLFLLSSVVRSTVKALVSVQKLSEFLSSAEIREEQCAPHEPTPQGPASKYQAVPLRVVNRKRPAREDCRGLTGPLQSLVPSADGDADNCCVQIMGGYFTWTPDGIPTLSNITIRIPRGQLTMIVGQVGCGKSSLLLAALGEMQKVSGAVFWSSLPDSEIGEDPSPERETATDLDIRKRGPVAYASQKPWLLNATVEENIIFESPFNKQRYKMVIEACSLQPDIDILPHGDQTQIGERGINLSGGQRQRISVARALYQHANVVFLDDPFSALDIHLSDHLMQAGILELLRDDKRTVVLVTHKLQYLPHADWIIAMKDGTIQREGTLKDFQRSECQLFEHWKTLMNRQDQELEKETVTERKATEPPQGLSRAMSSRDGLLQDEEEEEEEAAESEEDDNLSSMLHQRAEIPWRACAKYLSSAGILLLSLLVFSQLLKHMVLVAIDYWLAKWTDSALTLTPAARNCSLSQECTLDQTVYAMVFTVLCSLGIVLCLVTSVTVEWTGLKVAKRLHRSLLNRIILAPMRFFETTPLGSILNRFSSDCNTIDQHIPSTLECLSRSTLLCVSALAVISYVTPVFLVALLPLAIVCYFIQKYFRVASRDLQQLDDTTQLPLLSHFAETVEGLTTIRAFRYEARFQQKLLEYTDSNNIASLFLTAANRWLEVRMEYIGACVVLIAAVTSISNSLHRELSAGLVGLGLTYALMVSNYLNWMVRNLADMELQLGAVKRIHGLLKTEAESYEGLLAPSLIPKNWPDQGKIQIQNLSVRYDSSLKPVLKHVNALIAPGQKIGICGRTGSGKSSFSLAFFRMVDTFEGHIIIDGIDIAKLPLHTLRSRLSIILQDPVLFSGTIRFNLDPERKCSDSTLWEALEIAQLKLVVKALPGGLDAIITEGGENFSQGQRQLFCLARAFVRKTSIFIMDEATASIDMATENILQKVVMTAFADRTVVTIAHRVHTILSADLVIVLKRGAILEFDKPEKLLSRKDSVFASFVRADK
T1 sequence (Q14654 whole entry partner): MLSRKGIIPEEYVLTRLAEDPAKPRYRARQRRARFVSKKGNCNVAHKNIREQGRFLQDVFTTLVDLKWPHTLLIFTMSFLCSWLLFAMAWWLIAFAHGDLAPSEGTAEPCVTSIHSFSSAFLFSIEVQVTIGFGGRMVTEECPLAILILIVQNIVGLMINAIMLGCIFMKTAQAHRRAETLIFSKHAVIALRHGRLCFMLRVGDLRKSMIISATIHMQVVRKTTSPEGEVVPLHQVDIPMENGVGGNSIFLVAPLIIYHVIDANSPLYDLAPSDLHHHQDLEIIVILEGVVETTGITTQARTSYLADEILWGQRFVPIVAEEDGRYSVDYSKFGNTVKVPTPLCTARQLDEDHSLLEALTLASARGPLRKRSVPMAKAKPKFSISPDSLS

In the case of `CC1=Nc2ccc(Cl)cc2S(=O)(=O)N1` [diazoxide, 7-chloro-3-methyl-2H-1,2,4-benzothiadiazine 1,1-dioxide], the insulin release result in series [1] is reported as “inhibit insulin release”. In addition, in the series with obese Zucker rats, the glucose tolerance result was “improve glucose tolerance”, the insulin receptor binding result is reported as “increase insulin receptor binding”, the insulin secretion entry is reported as “decrease insulin secretion” and the weight gain entry is reported as “decrease weight gain”. Besides, the onset of diabetes entry with BB-rats was “delay the onset of diabetes”. In general, melting point refers to the temperature of the solid-liquid transition. Regarding `O=S1(=O)N=C(NC2(CO)CCCC2)Nc2cc(Cl)sc21` [Example 9, 6-Chloro-3-(1-hydroxymethylcyclopentyl)amino-4H-thieno[3,2-e]-1,2,4-thiadiazine 1,1-dioxide], the melting point lay within 213 to 214 °C. In turn, `CC1(NC2=NS(=O)(=O)c3sc(Cl)cc3N2)CCC1` [Example 13, 6-Chloro-3-(1-methylcyclobutyl)amino-4H-thieno[3,2-e]-1,2,4-thiadiazine 1,1-dioxide] yielded a melting point of 294 to 296 °C. Regarding `CC(C)(NC1=NS(=O)(=O)c2sc(Cl)cc2N1)c1ccccc1` [Example 10, 6-Chloro-3-(1-methyl-1-phenylethyl)amino-4H-thieno[3,2-e]-1,2,4-thiadiazine 1,1-dioxide], the melting point is ~ 360 °C (dec.). The compound `O=S1(=O)N=C(NC23CC4CC(CC(C4)C2)C3)Nc2cc(Cl)sc21` [Example 6, 3-(1-Adamantyl)amino-6-chloro-4H-thieno[3,2-e]-1,2,4-thiadiazine 1,1-dioxide] returned a melting point of 339 to 340 °C. Consider `CC(C)(CO)NC1=NS(=O)(=O)c2sc(Cl)cc2N1` [Example 4, 6-Chloro-3-(2-hydroxy-1,1-dimethylethylamino)-4H-thieno[3,2-e]-1,2,4-thiadiazine 1,1-dioxide], for which the melting point fell in the range of 224 to 226 °C.
